Several values for one entry are separate records, joined by “and”; a condition that tells them apart may be missing. Equal entries are not always repeated. Entries after “also recorded” stand apart in the source; their conditions may differ.
What was measured:
Assay type in all cases: cell-based, human
[1] = system: patient-derived tumor organoids (PDTOs), cervical carcinoma; experiment: Endoxifen screen in PDTOs: cervical carcinoma; design: key to Personalization Category: Personalization categories range from High, Good, Moderate, Low, to None; Personalization categories range from High, Good, Moderate, Low, to None; Personalization categories range from High, Good, Moderate, Low, to None; Personalization categories range from High, Good, Moderate, Low, to None; Personalization categories range from High, Good, Moderate, Low, to None; key to Sensitivity Category: Sensitivity categories range from High, Good, Moderate, Low, to None; Sensitivity categories range from High, Good, Moderate, Low, to None; Sensitivity categories range from High, Good, Moderate, Low, to None; Sensitivity categories range from High, Good, Moderate, Low, to None; Sensitivity categories range from High, Good, Moderate, Low, to None; AUC: unit not given beside the values
Procedure: (§1) This example describes screening endoxifen in patient-derived tumor organoids. Endoxifen was tested as a single agent on tumor organoids derived from patients diagnosed with various cancer types using a personalized cancer treatment screening assay (PARIS© Test, SEngine Precision Medicine). The screen utilized patient-derived tumor organoids (PDTOs) along with high-throughput drug screening and machine learning-guided data analysis to quantify the efficacy of endoxifen against samples derived from individual patients diagnosed with various cancer types. PDTOs are self-organizing, three-dimensional organoid structures that recapitulate structural, functional, and genomic aspects of in vivo organs. The PDTOs were grown in culture from patient tumor biopsy samples.
(§2) Fresh patient biopsy samples received following surgery were cleaned and purified. Immune cells (e.g., lymphocytes, blood cells), cancer-associated fibroblasts, and other non-tumor cells were removed to establish pure PDTOs for endoxifen testing. The tumor organoids were grown and expanded by supplying organ- and patient-specific growth factors and nutrients. The PDTOs were treated with increasing concentrations of endoxifen ranging from about 30 nM to about 10 μM, and the drug response was measured using a luminescence readout. A lower luminescence was indicative of a stronger drug response.
(§3) The results were analyzed using a “SEngine Precision Medicine” (SPM) scoring system to assess the sensitivity and personalization of each tumor organoid to endoxifen. The SPM score correlates with clinical outcomes, such that a higher SPM score for a specific PDTO-drug combination predicts a more favorable clinical outcome following treatment of the corresponding patient with the tested drug.
(§4) This example describes testing endoxifen efficacy against 17 distinct cancer types in patient-derived tumor organoids (PDTOs). Screening of PDTOs was performed as described in EXAMPLE 1. For each PDTO sample, the drug response was measured using a luminescent readout over a range of endoxifen concentrations. The drug response was evaluated based on the area under the fitted dose response curve (AUC) and the SPM scoring system. AUC values were normalized for each PDTO. Briefly, data points at each drug concentration were first normalized to a negative control, then a dose response drug curve was approximated using a four-parameter logistic model fitted to the normalized data points. The area under the curve was calculated from the normalized curve. Normalization allowed for comparison of AUC values between patient samples. The SPM scores were based on machine learning models that incorporate values for how well the drug kill patient cells (sensitivity metric), the relative drug responses of a patient to all other patients in a sample database (personalization metric), and knowledge of clinical outcomes for patients that had been evaluated with the personalized cancer screening assay (PARIS® Test, SEngine Precision Medicine).
(§5) The SPM scoring system evaluated whether a PDTO was unresponsive or responsive to endoxifen and the degree of drug response for PDTOs that were responsive to endoxifen. […] The sensitivity category was determined from the sensitivity metric and is a measure of overall cell death of a patient's cells in response to endoxifen at six concentrations. […]

[2] = system: patient-derived tumor organoids (PDTOs), gastric cancer; experiment: Endoxifen screen in PDTOs: gastric cancer; design: key to Personalization Category: Personalization categories range from High, Good, Moderate, Low, to None; Personalization categories range from High, Good, Moderate, Low, to None; Personalization categories range from High, Good, Moderate, Low, to None; Personalization categories range from High, Good, Moderate, Low, to None; Personalization categories range from High, Good, Moderate, Low, to None; key to Sensitivity Category: Sensitivity categories range from High, Good, Moderate, Low, to None; Sensitivity categories range from High, Good, Moderate, Low, to None; Sensitivity categories range from High, Good, Moderate, Low, to None; Sensitivity categories range from High, Good, Moderate, Low, to None; Sensitivity categories range from High, Good, Moderate, Low, to None; AUC: unit not given beside the values; settings: each line one patient sample
Procedure: as §1, §2, §3, §4
The SPM scoring system evaluated whether a PDTO was unresponsive or responsive to endoxifen and the degree of drug response for PDTOs that were responsive to endoxifen. The SPM scoring system generated metrics an SPM score, predictive of clinical outcome, overall drug response (response category), drug sensitivity (sensitivity category), and drug personalization (personalization category). SPM scores ranged from 1-15, corresponding to the following drug response categories: no response (SPM 1-8), low response (SPM 9), moderate response (SPM 10-11), good response (SPM 12-13), and exceptional response (SPM 14-15). […] Moderate to good drug responses (SPM 10-13) may indicate that a drug has clinical relevance, possibly in combination with other drugs. The sensitivity category was determined from the sensitivity metric and is a measure of overall cell death of a patient's cells in response to endoxifen at six concentrations. […]

[3] = system: patient-derived tumor organoids (PDTOs), rectal cancer; experiment: Endoxifen screen in PDTOs: rectal cancer; design: key to Personalization Category: Personalization categories range from High, Good, Moderate, Low, to None; Personalization categories range from High, Good, Moderate, Low, to None; Personalization categories range from High, Good, Moderate, Low, to None; Personalization categories range from High, Good, Moderate, Low, to None; Personalization categories range from High, Good, Moderate, Low, to None; key to Sensitivity Category: Sensitivity categories range from High, Good, Moderate, Low, to None; Sensitivity categories range from High, Good, Moderate, Low, to None; Sensitivity categories range from High, Good, Moderate, Low, to None; Sensitivity categories range from High, Good, Moderate, Low, to None; Sensitivity categories range from High, Good, Moderate, Low, to None; AUC: unit not given beside the values
Procedure: as §1, §2, §3, §4, §5

[4] = system: patient-derived tumor organoids (PDTOs), sarcoma; experiment: Endoxifen screen in PDTOs: sarcoma; design: key to Personalization Category: Personalization categories range from High, Good, Moderate, Low, to None; Personalization categories range from High, Good, Moderate, Low, to None; Personalization categories range from High, Good, Moderate, Low, to None; Personalization categories range from High, Good, Moderate, Low, to None; Personalization categories range from High, Good, Moderate, Low, to None; AUC: unit not given beside the values
Procedure: as §1
as §2, with “The tumor organoids were grown and expanded by supplying organ- and patient-specific growth factors and nutrients.” left out
The results were analyzed using a “SEngine Precision Medicine” (SPM) scoring system to assess the sensitivity and personalization of each tumor organoid to endoxifen. […]
This example describes testing endoxifen efficacy against 17 distinct cancer types in patient-derived tumor organoids (PDTOs). […] For each PDTO sample, the drug response was measured using a luminescent readout over a range of endoxifen concentrations. The drug response was evaluated based on the area under the fitted dose response curve (AUC) and the SPM scoring system. […] The area under the curve was calculated from the normalized curve. […]
The SPM scoring system evaluated whether a PDTO was unresponsive or responsive to endoxifen and the degree of drug response for PDTOs that were responsive to endoxifen. […]

IC50 ([1]; Homo sapiens, Patient 10, four-parameter logistic fit): 3.48 µM | IC50 ([2]; four-parameter logistic fit): 6.55 µM and 6.73 µM and 2.45 µM and 4.14 µM and 2.89 µM and 4.86 µM | IC50 ([3]; Homo sapiens, Patient 19, four-parameter logistic fit): 3.9 µM
Structure (SMILES): CC/C(=C(\c1ccc(O)cc1)c1ccc(OCCNC)cc1)c1ccccc1 [Endoxifen, 4-hydroxy-N-desmethyltamoxifen]
Personalization Category ([1]; Patient 10): Good | Sensitivity Category ([1]; Patient 10): Low | AUC ([1]; Patient 10, normalized area under fitted dose response curve): 0.8002 | SPM Score ([1]; Patient 10, score range 1-15): 11 | Personalization Category [2]: None and Low and High | Response Category [2]: None (no response (SPM 1-8)); also recorded: Low (low response (SPM 9)); also recorded: Good (good response (SPM 12-13)); also recorded: Moderate (moderate response (SPM 10-11)) | Sensitivity Category [2]: Low and Moderate | AUC ([2]; normalized area under fitted dose response curve): 0.9503 and 0.8641 and 0.7529 and 0.8116 and 0.6723 and 0.8547 | SPM Score ([2]; score range 1-15): 5 and 9 and 12 and 11 and 13 and 10 | Personalization Category ([3]; Patient 19): Low | Sensitivity Category ([3]; Patient 19): Low | AUC ([3]; Patient 19, normalized area under fitted dose response curve): 0.8614 | SPM Score ([3]; Patient 19, score range 1-15): 9 | Personalization Category ([4]; patient 21): None | AUC ([4]; patient 21, normalized area under fitted dose response curve): 0.9995 | SPM Score ([4]; patient 21, score range 1-15): 1
